The text below walks through data of patent US20130052204A1, “(POLY)-GLYCEROLPHOSPHATE-BASED ANTI-GRAM POSITIVE BACTERIAL VACCINE” (priority 2009, published 2013).

“Also recorded” adds a separate entry of the source.

What all share (format): binding
For assay [1], the system named is Pagibaximab (anti-LTA). Nature of the assay: ELISA: biotinylated LTA or PGP added to Pagibaximab-coated plates. The conditions noted are these: for O.D. readings: Pagibaximab-coated wells. Here is the method:
(§1) ELISA plates (96-well) were coated overnight with […] of Pagibaximab (anti-LTA), Zantibody (anti-peptidoglycan), or Synagis (anti-RSV), all of which are chimeric IgG1 antibodies. PGP was prepared as described above in Example 1, and LTA was extracted from S. aureus. The plates were then developed with horseradish peroxidase for 30 minutes.
(In general: An ELISA detects its analyte on a solid surface through an enzyme-linked reagent.)

Assay [2] deals with Zantibody (anti-peptidoglycan). In words: ELISA: biotinylated LTA or PGP added to Zantibody-coated plates. The conditions noted are these: anti-peptidoglycan-coated wells. Here is the method: as §1
The test system of assay [3] is Synagis (anti-RSV). Nature of the assay: ELISA: biotinylated LTA or PGP added to Synagis-coated plates. The conditions noted are these: Synagis-coated wells. As to the method:
as §1

[4] abbreviates: biotinylated LTA or PGP at 0.004 μg/ml.
Setting [5] is: biotinylated LTA or PGP at 0.012 μg/ml.
Setting [6] is: biotinylated LTA or PGP at 0.037 μg/ml.
The mark [7] stands for this setting: biotinylated LTA or PGP at 0.1 μg/ml.
[8] abbreviates: biotinylated LTA or PGP at 0.33 μg/ml.
Setting [9] is: biotinylated LTA or PGP at 1 μg/ml.
[10] abbreviates: biotinylated LTA or PGP at 3 μg/ml.

Take poly-glycerolphosphate [PGP]: the O.D. readings worked out at 0.34 in assay [1] (setting [4]); 0.51 in assay [1] (setting [5]); 0.67 in assay [1] (setting [6]); 0.89 in assay [1] (setting [7]); 1.09 in assay [1] (setting [8]); 1.42 in assay [1] (setting [9]). Moreover, the O.D. readings in assay [1] (biotinylated LTA or PGP at 3 μg/ml, one hour) is 1.91; in assay [2] (setting [4]), less than 0.02; in assay [2] (setting [5]) it was less than 0.02; in assay [2] (setting [6]) it was less than 0.02; in assay [2] (setting [7]) it was less than 0.02; in assay [2] (setting [8]) it was less than 0.02. Besides, the O.D. readings in assay [2] (setting [9]) is given as less than 0.02; in assay [2] (setting [10]), 0.03; in assay [3] (setting [4]), less than 0.02; in assay [3] (setting [5]) it was less than 0.02; in assay [3] (setting [6]), less than 0.02; in assay [3] (setting [7]), less than 0.02. In addition, the O.D. readings in assay [3] (setting [8]), in assay [3] (setting [9]) and in assay [3] (setting [10]) was less than 0.02 each time. In addition, the “recognition / binding by Pagibaximab (in words)” value in assay [1] (compared with LTA from S. aureus) is “recognized; also recorded: binds equally well”.
